In patent publication US20230277484A1, “COMPOSITIONS AND METHODS TO PROMOTE BRAIN HEALTH” (Guardian Biosciences, LLC, priority 2022, published 2023):

Columns and labels:
[1] = test system: IL-1β, IL-6, IL-10, TNF-α; assay: Luminex Mouse Inflammatory Panel in cortex after TBI; assay type: in vivo, C57BL/6J female mice
Method: Sacrifice Schedule: • a. Day 0—animals 1-5, all groups, 4h post TBI • b. Day 1—animals 6-10, all groups, 24 h post-TBI • c. Day 14—animals 11-20, all groups, 14d post TBI
Luminex Mouse Inflammatory Panel. FIG. 9A-FIG. 9C show pg/pg total protein of IL-1β (FIG. 9A), IL-6 (FIG. 9B) and IL-10 (FIG. 9C) expressed in the cortex in each study group from FIG. 8. […] While IL-10 is generally thought of as an anti-inflammatory cytokine, it also may promote fibrotic processes [Steen, E H et al. Adv. Wound Care (New Rochelle) (2020) 9 (4): 184-98, citing O'Garra, A. et al. Immunol. Rev. ([…]) 223: 114-31]. The data for the pre+post groups are consistent with the behavioral data.

[2] = test system: weight drop model of TBI; assay: Beam-walk behavioral assay in the weight drop model of TBI; assay type: in vivo, C57BL/6J female mice
Description: Test System. • Number of animals: 120 (100+20 extra for TBI deaths0 • Species/Strain or Breed: C57BL/6J • Vendor: Jackson Labs • Age/Wt at Arrival: 11 weeks at arrival • Gender: Female • Age/Wt at Study Initiation: 12 weeks • Acclimation: 7 days • Housing: 3-4 animals/cage
Study Design. Animals will arrive in the facility and will have access to food and water ad libitum. On study day 0, animals will be randomized based on bodyweight. Animals will be briefly anesthetized with isoflurane and subjected to traumatic brain injury (TBI) or sham injury as listed under Injury Induction. Animals will be weighed and undergo behavior testing (Beam Walking) and necropsied according to the Necropsy section.
They will then be placed individually in the prone position in a foam bed with their heads directly under a Plexiglas tube. A brass weight (80 g) will be dropped once through the tube from a specific height (0.8 m) and will strike the head directly creating a midline impact injury. Animals will be monitored for the presence of the forearm fencing response as a sign of moderate TBI. Animals will be placed in a clean cage on a heating pad for recovery, and righting reflex recovery times will be recorded for all animals. Sham animals will undergo all the same procedures but will not be subjected to TBI. Animals will be given 0.1 mg/kg SC buprenorphine directly after TBI to reduce acute pain associated with the injury and directly after sham procedures for the purpose of experimental matching. Animals will be checked daily, per the IACUC-approved post-operative monitoring plan.
Behavioral assay—Beam Walking (Luong, T N et al. Assessment of motor balance and coordination in mice using the balance beam.” J. Vis. Exp. (2011) 49: 2376) Fine motor coordination and balance can be assessed by the beam walking assay, which is a popular test for analyzing mice's gait in an environment that challenges their ability to balance themselves. The goal of this test is for the mouse to stay upright and walk across an elevated narrow beam to a safe platform. Performance on the beam is quantified by measuring the time it takes for the mouse to traverse the beam and the number of paw slips that occur in the process. This task is particularly useful for detecting subtle deficits in motor skills and balance that may not be detected by other motor tests, such as the Rotarod.
This test takes place over 3 consecutive days: 2 days of training and 1 day of testing. On training days, each mouse crosses the 12 mm beam 3 times and then the 6 mm beam 3 times. […] Mice are placed at one end of a beam and the time required to cross to the escape box at the other end (80 cm away) is measured by the motion detectors. […]
On the test day, times to cross each beam are recorded. […]

[3] = mouse, in vivo
Method: 1. The purpose of this study is to determine tissue levels of a test article after dosing in mice.
3. Test system • Number of animals: 39 • Species/strain or breed: C57BL/6J • Age/Wt. at Arrival: 7 weeks • Sex: Female
On study day 0 animals were randomized into treatment groups based on body weight. Following enrollment, treatment was initiated and continued as indicated below. Body weights were recorded following enrollment. Sample collection time points are outlined below On study day 1, animals were necropsied as specified in Section 6.6 below.
7.6 Necropsy information • Method of euthanasia: bleed to exsanguinate followed by cervical dislocation. • Time points: N=3 at each time point; 0 (vehicle); 10 min; 30 min; 1, 2, 3 and 4h
Terminal blood samples were collected via cardiac blood draw and processed for plasma (K2 EDTA, 300-400 uL/animal. Plasma samples were stored at −80 C for shipment on dry ice for bioanalysis. From each animal, the entire brain was collected, flash frozen, and stored at −80 C for shipment on dry ice to bioanalysis.
A study was performed to collect plasma for pharmacokinetic monitoring after a single dose of R-(−)-3-hydroxybutyric acid sodium salt (“BHB”) or R-3′-hydroxybutyl (R)-3′-hydroxybutyrate (“BHB ester”) in female C57BL/6 mice. […]

[4] = test system: Neurofilament Light (NfL) Chain; assay: Neurofilament light chain in plasma after TBI; assay type: in vivo, C57BL/6J female mice; settings: preliminary, data not shown
Method: Plasma collection method: Centrifuge plasma samples (EDTA tubes) at 2200×g (not RPM) for 15 minutes at room temperature. Observe separation of blood cells and plasma, with plasma layer on top. Draw off only the plasma layer and take care not to disturb buffy coat when aliquoting by leaving some plasma behind and avoiding the cell layer. Aliquot samples immediately into appropriately labeled tubes and then place them in a −80° C. freezer. […] [table]

[5] = citing Newman and Verdin 2017; cited from earlier work
[6] = target: human HCA2 (Homo sapiens, UniProt Q8TDS4); settings: citing Taggart et al. 2005; read-out: EC50 for activation of human HCA2; cited from earlier work
Sequence of human HCA2 (Q8TDS4 whole entry): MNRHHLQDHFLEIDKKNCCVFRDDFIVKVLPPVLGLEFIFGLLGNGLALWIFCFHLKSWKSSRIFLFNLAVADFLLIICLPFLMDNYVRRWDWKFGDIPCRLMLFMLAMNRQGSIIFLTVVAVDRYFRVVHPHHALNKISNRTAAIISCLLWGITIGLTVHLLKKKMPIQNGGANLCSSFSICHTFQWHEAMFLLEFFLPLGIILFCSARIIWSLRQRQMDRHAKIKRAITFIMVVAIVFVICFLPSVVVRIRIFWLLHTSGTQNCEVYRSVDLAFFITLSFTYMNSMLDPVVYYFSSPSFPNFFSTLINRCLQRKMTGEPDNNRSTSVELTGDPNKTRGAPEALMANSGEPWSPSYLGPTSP

| SMILES | IL-1β expression in cortex ([1]; 24 h and 14 day time points) | IL-6 expression in cortex ([1]; 24 h and 14 day time points) | IL-10 expression in cortex ([1]; 24 h and 14 day time points) | TNF-α results ([1]; data not shown) | improvement in foot faults ([2]; 2× pre+post group, 1 day after TBI, IN daily) | foot faults after IN delivery after TBI ([2]; as soon as day 1 after injury, greatest decrease in post and 2× pre and post groups at day 3) | beam walking at day 3, all treated groups ([2]; day 3, best results in post and 2× pre+post groups) | beam walking, treated groups vs TBI vehicle ([2]; pre, post, pre+post and 2× pre+post groups, day 1 and day 3) | plasma levels relative to brain levels [3] | NfL plasma results [4] | solubility in water and blood [5] | EC50 [6] |
| --- | --- | --- | --- | --- | --- | --- | --- | --- | --- | --- | --- | --- |
| C[C@@H](O)CC(=O)[O-].[Na+] [BHB salt, R-(−)-3-hydroxybutyric acid sodium salt] | decreased expression | decreased expression | decreased expression | not significant | 70% | decreased foot faults | significantly improved | showed improvement in beam walking | approximately ten fold | not significant |  |  |
| CC(O)CC(=O)O (stereo not drawn) [BHB, beta-hydroxybutyrate] |  |  |  |  |  |  |  |  |  |  | readily soluble in water and blood | ~700 µM |
| C[C@@H](O)CCOC(=O)C[C@@H](C)O [BHB ester, R-3′-hydroxybutyl (R)-3′-hydroxybutyrate] |  |  |  |  |  |  |  |  | approximately ten fold |  |  |  |
